# Assay results as given in patent EP0504807B1, “Use of bis-(p-hydroxyphenylthio)methane derivatives to inhibit progressive development of insulin-dependent diabetes mellitus” (MERRELL PHARMACEUTICALS INC., priority 1991, dated 1992).
# How the values were obtained:
# [1] = tested on: Female NOD mice; assay: Prevention of the progressive development of IDDM in the NOD mouse (incidence of diabetes by urine glucose and plasma glucose); assay type: in vivo
# From the text: The non-obese diabetic (NOD) mouse has a genetic predisposition to developing IDDM, particularly among the females. Diabetes begins to appear at 12-14 weeks of age and by 30-36 weeks of age about 75-85% of female NOD's will have developed IDDM. As such, the NOD mouse provides a standard experimental model for IDDM in man which is well known and appreciated by those skilled in the art [see Lampeter, et al: Diabetologia 32, 703 (1989)]. The effect of experimental agents on the NOD mouse can thus be studied to determine whether these agents are active in inhibiting the development of diabetes.
# Female NOD mice were maintained on standard laboratory rodent feed containing either 0% (Control Group) or 1% bis(3,5-di-tertiary-butyl-4-hydroxyphenylthio)methane (Treated Group) as an admixture. The mice were started on these diets at 4 weeks of age and continued until they were 24 weeks old. Each mouse was tested for diabetes at 8, 12, 14, 16, 18, 20, 22 and 24 weeks of age. Diabetic mice were detected by a positive urine glucose measurement and were confirmed by a plasma glucose level greater than 300 mg/dL. Urine glucose was determined using Diastix™ reagent strips for urinalysis (Miles Inc., Diagnostics Division, Elkhart, IN) and plasma glucose using Glucose (GDH Endpoint) Reagent™ (Seradyn, Inc., Indianapolis, IN).
# Mice were counted as diabetic if a positive urine glucose and plasma glucose greater than 300 mg/dL were determined on 3 consecutive measurements. If mice were determined to be diabetic for 1 or 2 consecutive measurements and then died with physical indications of IDDM such as severe weight loss, these mice were also counted as diabetic.
# At 24 weeks of age, 30 of 61 mice in the Control Group (49%) had become diabetic compared to 2 of 51 mice in the Treated Group (4%).
# The treated, nondiabetic mice (N=38) not sacrificed at 24 weeks of age were switched to control diet and monitored, along with the 21 remaining controls, for 24 more weeks. During this period, 13 of 21 (62%) controls and 13 of 38 (34%) previously treated mice developed diabetes (p=0.04). Combining the two 24 week study periods, the percentage of mice that developed diabetes among the controls was 81% (51% of the controls were nondiabetic after 24 weeks of study and 38% of these were still nondiabetic after 24 more weeks for an overall total of 19% nondiabetic control animals). Among the group treated for 24 weeks the percentage of mice that developed diabetes after 48 weeks of study was 37% (96% were nondiabetic after 24 weeks and 66% of these were still nondiabetic 24 weeks after stopping treatment).
# [2] = tested on: Female NOD mice; assay: Pancreatic histopathology of NOD mice at 24 weeks of age (hematoxylin and eosin, immunoperoxidase for insulin); assay type: in vivo, NOD mouse; settings: 1% in feed
# From the text: At 24 weeks of age, randomly selected control (N=10) and treated (N=10) nondiabetic mice and all surviving diabetic control (N=15) and treated (N=1) mice were sacrificed. Pancreata were collected and stored in formalin, processed, embedded, and sectioned by standard histological methods. Sections stained with hemotoxylin and eosin or by immunoperoxidase for insulin (as a marker for the presence of β-cells) were examined light microscopically. […]
# [3] = Clinical Status Diabetic, 1 mouse
# [4] = Clinical Status Nondiabetic, 10 mice
compound,measurement,setting,value
"CC(C)(C)c1cc(SCSc2cc(C(C)(C)C)c(O)c(C(C)(C)C)c2)cc(C(C)(C)C)c1O [Bis(3,5-di-tertiary-butyl-4-hydroxyphenylthio)methane]",percentage of mice that developed diabetes,"[1]; after 48 weeks of study, group treated for 24 weeks, two 24 week periods combined, controls 81%",37%
same,treated mice nondiabetic,"[1]; at 24 weeks of age / after 24 weeks of study, 1% in feed, controls 51%",96%
same,mice that had become diabetic,"[1]; at 24 weeks of age, 1% in feed as an admixture from 4 to 24 weeks of age, Control Group 30 of 61",2 of 51
same,mice that had become diabetic (percentage),"[1]; at 24 weeks of age, 1% in feed from 4 to 24 weeks of age, Control Group 49%",4%
same,still nondiabetic 24 weeks after stopping treatment,"[1]; of the mice nondiabetic after 24 weeks of treatment, controls 38%",66%
same,previously treated mice that developed diabetes,"[1]; treated nondiabetic mice switched to control diet at 24 weeks of age, monitored 24 more weeks, controls 13 of 21, p=0.04",13 of 38
same,previously treated mice that developed diabetes (percentage),"[1]; treated nondiabetic mice switched to control diet at 24 weeks of age, monitored 24 more weeks, controls 62%, p=0.04",34%
same,Atrophy,[2]; [3],1 number of mice
same,Insulitis,[2]; [3],1 number of mice
same,β-Cells Present,[2]; [3],1 number of mice
same,Atrophy,[2]; [4],2 number of mice
same,Insulitis,[2]; [4],9 number of mice
